Measurements published in US4943570A, “Benzimidazolesulfonamides and imidazopyridinesulfonamides, and their application as drugs” (Laboratorios Del Dr. Esteve, S.A., priority 1986, dated 1990).

Test system: gastric acid secretion
Experiment: Inhibition of gastric acid secretion in Shay rats (Shay's method, pylorus ligation)
Type: in vivo, Male Wistar rats
Settings: Rattus norvegicus, administered intraduodenally; for ED50: 2 h; for inhibition in vivo at 40 mg/kg: intraduodenal, 2 h after pylorus ligation, read-out: Percentage inhibition of gastric acid secretion
Excerpt: Shay's method [H. Shay; S. A. Komarov; S. S. Fels; D. Merange: M. Grvenstein; H. Siplet: Gastroenterology, 5, 43 (1945)--F. E. Visscber; P. H. Seay: A. P. Taxelaar; W. Veldkamp; M. J. Vander Brook: J. Pharmac. Exp. Ther., 110, 188 (1954)--"Animal Experiments in Pharmacological Analysis", F. R. Domer: C. C. Thomas, published by Springfield, Ill., U.S.A., 1970, p. 140].
Male Wistar rats weighing 200 to 250 grams are used in this test; they are fasted from the day preceding the day of the test, with free access to water. Groups containing a minimum of 4 animals each are used.
The rats are anesthetized with ethyl ether, a laparotomy is performed on them and their pylorus is ligated; the abdominal incision is then sewn up. The administration of the products, with the vehicle for the control group, is effected intraduodenally (i.d.) before the abdominal incision is sewn up. The dose administered in the first test is 40 mg/kg and the 50% effective dose (ED50), administered intraduodenally, is also determined in a second test. The vehicle used is gum arabic at a concentration of 5% w/v in double-distilled water.
Two hours after ligation of the pylorus, the rats are sacrificed by prolonged anesthesia with ethyl ether and the volume of gastric juice is measured; the total acidity is determined by means of a pH meter equipped with an automatic burette. For each product and each dose tested, the percentage inhibition of gastric acid secretion is determined relative to the control group.

Structure (SMILES) | ED50 | inhibition in vivo at 40 mg/kg
CCNS(=O)(=O)c1nc2cc(C(=O)c3ccccc3)ccc2[nH]1 [Example 1, 5-benzoyl-N-ethyl-1H-benzimidazole-2-sulfonamide] | 22.4 mg/kg | 78.7%
O=S(=O)(Nc1ccccn1)c1nc2ccccc2[nH]1 [Example 5, N-(2-Pyridyl)-1H-benzimidazole-2-sulfonamide] | 10.8 mg/kg | 96.4%
COc1ccc(CCNS(=O)(=O)c2nc3ccccc3[nH]2)cc1OC [Example 11, N-[2-(3,4-Dimethoxyphenylethyl)]-1H-benzimidazole-2-sulfonamide] | 42 mg/kg | 48.8%
CCCCNS(=O)(=O)c1nc2ccccc2[nH]1 [Example 14, N-Butyl-1H-benzimidazole-2-sulfonamide] | 30.6 mg/kg | 61.4%
CCNS(=O)(=O)c1nc2cc(C(F)(F)F)ccc2[nH]1 [Example 26, N-Ethyl-5-trifluoromethyl-1H-benzimidazole-2-sulfonamide] | 38.5 mg/kg | 53%
O=S(=O)(c1nc2ccccc2[nH]1)N1CCCCC1CO (centres unmarked) [Example 28, 2-(Sulfonyl-2-hydroxymethyl-1-piperidinyl)-1H-benzimidazole] | 38.5 mg/kg | 51.4%
COc1ccc(CNS(=O)(=O)c2nc3ccccc3[nH]2)cc1 [Example 29, N-(4-Methoxybenzyl)-1H-benzimidazole-2-sulfonamide] | 37.9 mg/kg | 54.2%
O=[N+]([O-])c1ccc2[nH]c(S(=O)(=O)NCCN3CCOCC3)nc2c1 [Example 36, N-[2-(4-Morpholinoethyl)]-5-nitro-1H-benzimidazole-2-sulfonamide] | 65.6 mg/kg | 40%
CCNS(=O)(=O)c1nc2ccccc2n1CC [Example 62, 1,N-diethyl-1H-benzimidazole-2-sulfonamide] | 31 mg/kg | 52.4%
CCN(CC)S(=O)(=O)c1nc2ccccc2n1CC [Example 63, 1,N,N-Triethyl-1H-benzimidazole-2-sulfonamide] | 49.2 mg/kg | 52%
CCN(CC)CCCC(C)NS(=O)(=O)c1nc2cc(Cl)ccc2n1CC (centres unmarked) [Example 68, 5-Chloro-N-(4-diethylamino-1-methylbutyl)-1-ethyl-1H-benzimidazole-2-sulfonamide] | 39.7 mg/kg | 53.8%
CCN(CC)CCCC(C)NS(=O)(=O)c1nc2ccc(Cl)cc2n1CC (centres unmarked) [Example 69, 6-Chloro-N-(4-diethylamino-1-methylbutyl)-1-ethyl-1H-benzimidazole-2-sulfonamide] | 39.2 mg/kg | 54.3%
CCN(CC)CCCC(C)N(CC)S(=O)(=O)c1nc2cc(Cl)ccc2n1CC (centres unmarked) [Example 73, 5-Chloro-1,N-diethyl-N-(4-diethylamino-1-methylbutyl)-1H-benzimidazole-2-sulfonamide] | 18.5 mg/kg | 77.5%
CCN(CC)CCCC(C)N(CC)S(=O)(=O)c1nc2ccc(Cl)cc2n1CC (centres unmarked) [Example 74, 6-Chloro-1,N-diethyl-N-(4-diethylamino-1-methylbutyl)-1H-benzimidazole-2-sulfonamide] | 17.9 mg/kg | 76.4%
CCN1CCCn2c(nc3ccccc32)S1(=O)=O [Example 90, 3,4,5-Trihydro-2H-2-ethyl-[1,2,6]-thiadiazepino[6,7-a]-benzimidazole 1,1-dioxide] | 64 mg/kg | 51.4%
CCCCN1CCn2c(nc3ccccc32)S1(=O)=O [Example 100, 2H-2-Butyl-3,4-Dihydro-[1,2,5]-thiadiazino[5,6-a]-benzimidazole 1,1-dioxide] | 37.6 mg/kg | 51.8%
CCN(CC)CCCC(C)N1CCn2c(nc3cc(Cl)ccc32)S1(=O)=O (centres unmarked) [Example 102, 8-Chloro-3,4-dihydro-2H-2-(4-diethylamino-1-methylbutyl)-[1,2,5]-thiadiazino[5,6-a]benzimidazole 1,1-dioxide] | 14.1 mg/kg | 71.4%

Structure (SMILES) | ED50 | inhibition in vivo at 40 mg/kg
CCN(CC)CCCC(C)N1CCn2c(nc3ccc(Cl)cc32)S1(=O)=O (centres unmarked) [Example 103, 7-chloro-3,4-dihydro-2H-2-(4-diethylamino-1-methylbutyl)-[1,2,5]-thiadiazino[5,6-a]benzimidazole 1,1-dioxide] | 15 mg/kg | 72.3%
CCN1CCn2c(nc3cc(C(=O)c4ccccc4)ccc32)S1(=O)=O [Example 115, 8-Benzoyl-3,4-dihydro-2H-2-ethyl-[1,2,5]-thiadiazino-[5,6-a]benzimidazole 1,1-dioxide] | 38.9 mg/kg | 51.1%
CCN1CCn2c(nc3ccc(C(=O)c4ccccc4)cc32)S1(=O)=O [Example 116, 7-Benzoyl-3,4-dihydro-2H-2-ethyl-[1,2,5]-thiadiazino-[5,6-a]benzimidazole 1,1-dioxide] | 39.4 mg/kg | 50.3%
O=[N+]([O-])c1ccc2c(c1)nc1n2CCN(CCCN2CCOCC2)S1(=O)=O [Example 141, 3,4-Dihydro-2H-2-[3-(4-morpholinopropyl)]-8-nitro-[1,2,5]-thiadiazino[5,6-a]benzimidazole 1,1-dioxide] | 16.3 mg/kg | 80.9%
CCN(CC)CCCC(C)N1CCn2c(nc3cc([N+](=O)[O-])ccc32)S1(=O)=O (centres unmarked) [Example 143, 2H-2-(4-Diethylamino-1-methylbutyl)-3,4-dihydro-8-nitro-[1,2,5]-thiadiazino[5,6-a]benzimidazole 1,1-dioxide] | 20.5 mg/kg | 99.3%
O=[N+]([O-])c1ccc2c(c1)nc1n2CCNS1(=O)=O [Example 145, 3,4-Dihydro-2H-8-nitro-[1,2,5]-thiadiazino[5,6-a]-benzimidazole 1,1-dioxide] | 19.8 mg/kg | 68.7%
O=[N+]([O-])c1ccc2nc3n(c2c1)CCNS3(=O)=O [Example 146, 3,4-Dihydro-2H-7-nitro-[1,2,5]-thiadiazino[5,6-a]-benzimidazole 1,1-dioxide] | 20.3 mg/kg | 67.5%
O=[N+]([O-])c1ccc2c(c1)nc1n2CCN(C23CC4CC(CC(C4)C2)C3)S1(=O)=O [Example 147, 2H-2-(1-Adamantyl)-3,4-dihydro-8-nitro-[1,2,5]-thiadiazino[5,6-a]benzimidazole 1,1-dioxide] | 44 mg/kg | 46.5%
O=[N+]([O-])c1ccc2nc3n(c2c1)CCN(C12CC4CC(CC(C4)C1)C2)S3(=O)=O [Example 148, 2H-2-(1-Adamantyl)-3,4-dihydro-7-nitro-[1,2,5]-thiadiazino[5,6-a]benzimidazole 1,1-dioxide] | 46 mg/kg | 45.3%
CCN1CCn2c(nc3ccc(N)cc32)S1(=O)=O [Example 149, 7-amino-3,4-dihydro-2H-2-ethyl-[1,2,5]-thiadiazino[5,6-a]benzimidazole 1,1 dioxide] | 32.6 mg/kg | 64%
CCN1CCn2c(nc3ccc(NC(C)=O)cc32)S1(=O)=O [Example 150, 7-acetylamino-3,4-dihydro-2H-2-ethyl-[1,2,5]-thiadiazino[5,6-a]benzimidazole 1,1-dioxide] | 41.6 mg/kg | 53.4%
CCN1C(C)Cn2c(nc3ccccc32)S1(=O)=O (centres unmarked) [Example 170, 3,4-Dihydro-2H-2-ethyl-3-methyl-[1,2,5]-thiadiazino[5,6-a]benzimidazole 1,1-dioxide] | 21.8 mg/kg | 73.2%
CCCCN1CCn2c(nc3cccnc32)S1(=O)=O [Example 173, 2H-2-Butyl-3,4-Dihydropyrido[3', 2':4,5]imidazo[1,2-e]-[1,2,5]-thiadiazine 1,1-dioxide] | 39.2 mg/kg | 57.1%
CCN1C(c2ccccc2)=Cn2c(nc3ccccc32)S1(=O)=O [Example 177, 2H-2-ethyl-3-phenyl-[1,2,5]-thiadiazino[5,6-a]benzimidazole 1,1-dioxide] | 38.1 mg/kg | 53.7%
O=S1(=O)c2nc3ccccc3n2CC2CCCCN21 (centres unmarked) [Example 180, 1,2,3,4,13,14-hexahydropyrido-[1',2':2,3]-[1,2,5]-thiadiazino[5,6-a]-benzimidazole 6,6-dioxide] | 43.7 mg/kg | 43.8%
O=[N+]([O-])c1ccc2c(c1)nc1n2CC2CCCCN2S1(=O)=O (centres unmarked) [Example 181, 1,2,3,4,13,14-Hexahydro-9-nitropyrido[1',2':2,3]-[1,2,5-thiadiazino5,6-a]benzimidazole 6,6-dioxide] | 62 mg/kg | 43.4%
O=[N+]([O-])c1ccc2nc3n(c2c1)CC1CCCCN1S3(=O)=O (centres unmarked) [Example 182, 1,2,3,4,13,14-Hexahydro-10-nitropyrido[1',2':2,3]-[1,2,5]-thiadiazino[5,6-a]benzimidazole 6,6-dioxide] | 61.2 mg/kg | 42.1%
